pIC50: −log10 of the molar value. Where a name gives a salt, the structure may show the parent alone.
Biological target: MK-2 (Homo sapiens, UniProt P49137)
Assay: Determination of MK-2 IC50 (anion exchange resin capture assay, HSP-peptide phosphorylation)
Format: biochemical
Conditions: read-out: MK-2 Avg. IC50
Procedure: The phosphorylation of HSP-peptide ([sequence]) by MAPKAPK2 was measured using an anion exchange resin capture assay method. […] The reaction was terminated and [γ^33P]ATP was removed from solution by the addition of 150 μl of AG 1×8 ion exchange resin in 900 mM sodium formate pH 3.0. A 50 μl aliquot of head volume was removed from the quenched reaction mixture and added to a 96-well plate, 150 μl of Microscint-40 (Packard) was added and the amount of phosphorylated-peptide was determined. Allow the Microscint to sit in the plates for 60 minutes prior to counting.
Compounds are evaluated as potential inhibitors of the MK2 kinase by measuring their effects on MK2 phosphorylation of the peptide substrate. Compounds may be screened initially at two concentrations prior to determination of IC50 values. Screening results are expressed as percent inhibition at the concentrations of compound tested. For IC50 value determinations, compounds are tested at six concentrations in ten-fold serial dilutions with each concentration tested in triplicate. Results are expressed as IC50 values in micromolar. The assay is performed at a final concentration of 2% DMSO.
Compounds are evaluated as potential inhibitors of the MK-2 kinase by measuring their effects on MK-2 phosphorylation of the peptide substrate. Compounds may be screened initially at two concentrations prior to determination of IC50 values. Screening results are expressed as percent inhibition at the concentrations of compound tested. For IC50 value determinations, compounds are tested at six concentrations in ten-fold serial dilutions with each concentration tested in triplicate. Results are expressed as IC50 values in micromolar. The assay is performed at a final concentration of 2% DMSO.

Sequence of MK-2 (P49137 whole entry, species assumed): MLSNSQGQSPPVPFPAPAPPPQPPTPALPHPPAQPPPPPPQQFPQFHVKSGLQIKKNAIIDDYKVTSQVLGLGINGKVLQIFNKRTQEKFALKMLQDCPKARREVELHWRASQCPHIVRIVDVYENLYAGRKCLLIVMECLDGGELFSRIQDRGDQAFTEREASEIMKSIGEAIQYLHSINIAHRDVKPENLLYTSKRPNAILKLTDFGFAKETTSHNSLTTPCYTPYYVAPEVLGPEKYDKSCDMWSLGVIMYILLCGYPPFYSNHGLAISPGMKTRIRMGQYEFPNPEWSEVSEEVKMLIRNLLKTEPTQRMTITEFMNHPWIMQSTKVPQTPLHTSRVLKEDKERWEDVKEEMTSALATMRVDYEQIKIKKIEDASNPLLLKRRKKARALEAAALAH

`O=C1NCCn2nc(-c3ccnc(-c4ccc(F)cc4F)c3)cc21` [Example 89, dihydrochloride] gave a pIC50 of 5.58.
`Cc1cn(-c2cc(-c3cc4n(n3)CCCNC4=O)ccn2)cn1` [Example 90] gave a pIC50 of 5.56.
Molecule `O=C1NCCn2nc(-c3ccnc(-c4ccc[nH]4)c3)cc21` [Example 91, dihydrochloride] has a pIC50 of 5.55.
Molecule `Cc1cc2cc(-c3cc(-c4cc5n(n4)CCNC5=O)ccn3)ccc2[nH]1` [Example 92] has a pIC50 of 5.55.
In the case of `O=C1NCCn2nc(-c3ccnc(-c4ccccc4F)c3)cc21` [Example 93], the pIC50 was 5.53.
For `O=C1NCCn2nc(-c3ccnc(-c4ccc(CN5CCOCC5)cc4)c3)cc21` [Example 94, bis(trifluoroacetate)], the pIC50 was 5.52.
`CCOC(=O)N1CCN(CCOc2cccc(-c3cc(-c4cc5n(n4)CCNC5=O)ccn3)c2)CC1` [Example 95, trifluoroacetate] was tested, and the pIC50 was 5.52.
`CCOC(=O)c1cc(-c2ccnc(-c3ccc(CO)cc3)c2)nn1CCN` [Example 96, trifluoroacetate] gave a pIC50 of 5.49.
With `NCc1cccc(-c2cc(-c3cc4n(n3)CCNC4=O)ccn2)c1` [Example 97, trifluoroacetate] the pIC50 was 5.49.
`O=C1NCCn2nc(-c3ccnc(-c4cccc(OCCN5CCCC5)c4)c3)cc21` [Example 98, 2-{2-[3-(2-pyrrolidin-1-ylethoxy)phenyl]pyridin-4-yl}-6,7-dihydropyrazolo[1,5-a]pyrazin-4(5H)-one] showed a pIC50 of 5.49.
Molecule `CC(=O)Nc1cccc(-c2cc(-c3cc4n(n3)CCNC4=O)ccn2)c1` [Example 99, N-{3-[4-(4-oxo-4,5,6,7-tetrahydropyrazolo[1,5-a]pyrazin-2-yl)pyridin-2-yl]phenyl}acetamide] has a pIC50 of 5.48.
`CN(C)c1ccc(-c2cc(-c3cc4n(n3)CCCNC4=O)ccn2)cc1` [Example 100, 2-{2-[4-(dimethylamino)phenyl]pyridin-4-yl}-5,6,7,8-tetrahydro-4H-pyrazolo[1,5-a][1,4]diazepin-4-one trifluoroacetate] gave a pIC50 of 5.46.
`O=C1NCCn2nc(-c3ccnc(-c4ccc(C(=O)N5CCOCC5)cc4)c3)cc21` [Example 101, 2-{2-[4-(morpholin-4-ylcarbonyl)phenyl]pyridin-4-yl}-6,7-dihydropyrazolo[1,5-a]pyrazin-4(5H)-one] gave a pIC50 of 5.44.
`O=C(O)CCc1ccc(-c2cc(-c3cc4n(n3)CCNC4=O)ccn2)cc1` [Example 102, 3-{4-[4-(4-oxo-4,5,6,7-tetrahydropyrazolo[1,5-a]pyrazin-2-yl)pyridin-2-yl]phenyl}propanoic acid] gave a pIC50 of 5.38.
`O=C1NCCn2nc(-c3ccnc(-n4cccn4)c3)cc21` [Example 103, 2-[2-(1H-pyrazol-1-yl)pyridin-4-yl]-6,7-dihydropyrazolo[1,5-a]pyrazin-4(5H)-one] gave a pIC50 of 5.38.
In the case of `O=C1NCCn2nc(-c3ccnc(-c4nc5ccccc5s4)c3)cc21` [Example 104, 2-[2-(1,3-benzothiazol-2-yl)pyndin-4-yl]-6,7-dihydropyrazolo[1,5-a]pyrazin-4(5H)-one], the pIC50 was 5.37.
`O=C1NCCCn2nc(-c3ccnc(-n4cnc(-c5ccccc5)c4)c3)cc21` [Example 105, 2-[2-(4-phenyl-1H-imidazol-1-yl)pyridin-4-yl]-5,6,7,8-tetrahydro-4H-pyrazolo[1,5-a][1,4]diazepin-4-one trifluoroacetate] was tested, and the pIC50 was 5.37.
For `O=C1NCCCn2nc(-c3ccnc(-c4cccc(CO)c4)c3)cc21` [Example 106, 2-{2-[3-(hydroxymethyl)phenyl]pyridin-4-yl}-5,6,7,8-tetrahydro-4H-pyrazolo[1,5-a][1,4]diazepin-4-one trifluoroacetate], the pIC50 was 5.34.
`O=C1NC(CO)Cn2nc(-c3ccnc(C4CNc5ccccc5C4)c3)cc21` (centres unmarked) [Example 107, 6-(hydroxymethyl)-2-[2-(1,2,3,4-tetrahydroquinolin-3-yl)pyridin-4-yl]-6,7-dihydropyrazolo[1,5-a]pyrazin-4(5H)-one] showed a pIC50 of 5.31.
For `CCOC(=O)c1cc(-c2ccnc(-c3cccc(O)c3)c2)nn1CCN` [Example 108, ethyl 1-(2-aminoethyl)-3-[2-(3-hydroxyphenyl)pyridin-4-yl]-1H-pyrazole-5-carboxylate dihydrochloride], the pIC50 was 5.30.
Molecule `CCOC(=O)c1cc(-c2ccnc(-c3cccc(OC)c3)c2)nn1CCN` [Example 110, ethyl 1-(2-aminoethyl)-3-[2-(3-methoxyphenyl)pyridin-4-yl]-1H-pyrazole-5-carboxylate dihydrochloride] has a pIC50 of 5.28.
Molecule `O=C1NCCn2nc(-c3ccnc(-c4ccccn4)c3)cc21` [Example 111, 2-(2,2′-bipyridin-4-yl)-6,7-dihydropyrazolo[1,5-a]pyrazin-4(5H)-one] has a pIC50 of 5.27.
With `CN(C)Cc1ccc(-c2cc(-c3cc4n(n3)CCNC4=O)ccn2)cc1` [Example 112, 2-(2-{4-[(dimethylamino)methyl]phenyl}pyridin-4-yl)-6,7-dihydropyrazolo[1,5-a]pyrazin-4(5H)-one trifluoroacetate] the pIC50 was 5.27.
Work on `O=C1NCCCn2nc(-c3ccnc(-n4ccnc4)c3)cc21` [Example 113, 2-[2-(1H-imidazol-1-yl)pyridin-4-yl]-5,6,7,8-tetrahydro-4H-pyrazolo[1,5-a][1,4]diazepin-4-one hydrochloride] yielded a pIC50 of 5.25.
With `O=C1NCCn2nc(-c3ccnc(-c4cccc(CNCCO)c4)c3)cc21` [Example 114, 2-[2-(3-{[(2-hydroxyethyl)amino]methyl}phenyl)pyridin-4-yl]-6,7-dihydropyrazolo[1,5-a]pyrazin-4(5H)-one] the pIC50 was 5.24.
`CC(C)NCc1cccc(-c2cc(-c3cc4n(n3)CCNC4=O)ccn2)c1` [Example 115, 2-(2-{3-[(isopropylamino)methyl]phenyl}pyridin-4-yl)-6,7-dihydropyrazolo[1,5-a]pyrazin-4(5H)-one] showed a pIC50 of 5.20.
In the case of `O=C1NCCn2nc(-c3ccnc(-c4cccc(OCCN5CCOCC5)c4)c3)cc21` [Example 116, 2-{2-[3-(2-morpholin-4-ylethoxy)phenyl]pyridin-4-yl}-6,7-dihydropyrazolo[1,5-a]pyrazin-4(5H)-one], the pIC50 was 5.17.
`O=C1NCCn2nc(-c3ccnc(-n4cnc(-c5ccccc5)c4)c3)cc21` [Example 117, 2-[2-(4-phenyl-1H-imidazol-1-yl)pyridin-4-yl]-6,7-dihydropyrazolo[1,5-a]pyrazin-4(5H)-one] gave a pIC50 of 5.15.
For `NCCn1nc(-c2ccnc(-c3ccc(CO)cc3)c2)cc1C(=O)NO` [Example 118, 1-(2-aminoethy)-N-hydroxy-3-{2-[4-(hydroxymethyl)phenyl]pyridin-4-yl}-1H-pyrazole-5-carboxamide trifluoroacetate], the pIC50 was 5.10.
With `NCCCn1nc(-c2ccc(O)cc2)cc1C(=O)O` [Example 119, 1-(3-aminopropyl)-3-(4-hydroxyphenyl)-1H-pyrazole-5-carboxylic acid dihydrochloride] the pIC50 was 5.09.
Molecule `O=C1NCCn2nc(-c3ccnc(-c4nc5ccccc5[nH]4)c3)cc21` [Example 120, 2-[2-(1H-benzimidazol-2-yl)pyndin-4-yl]-6,7-dihydropyrazolo[1,5-a]pyrazin-4(5H)-one] has a pIC50 of 5.05.
`O=C1NCCCn2nc(-c3ccnc(-n4ccnn4)c3)cc21` [Example 121, 2-[2-(1H-1,2,3-triazol-1-yl)pyridin-4-yl]-5,6,7,8-tetrahydro-4H-pyrazolo[1,5-a][1,4]diazepin-4-one hydrochloride] was tested, and the pIC50 was 5.04.
For `O=C1NCCCn2nc(-c3ccncc3)cc21` [Example 122, 2-pyridin-4-yl-5,6,7,8-tetrahydro-4H-pyrazolo[1,5-a][1,4]diazepin-4-one], the pIC50 was 5.00.
For `O=C1NCCCn2nc(-c3ccnc(-n4cccc4)c3)cc21` [Example 123, 2-[2-(1H-pyrrol-1-yl)pyridin-4-yl]-5,6,7,8-tetrahydro-4H-pyrazolo[1,5-a][1,4]diazepin-4-one trifluoroacetate], the pIC50 was 4.97.
`NCCCn1nc(-c2ccnc(-c3cnc4ccccc4c3)c2)cc1C(N)=O` [Example 124, 1-(3-aminopropyl)-3-(2-quinolin-3-ylpyridin-4-yl)-1H-pyrazole-5-carboxamide dihydrochloride] showed a pIC50 of 4.97.
In the case of `O=C1NCCn2nc(-c3ccnc(-c4cccc(CN5CCOCC5)c4)c3)cc21` [Example 125, 2-{2-[3-(morpholin-4-ylmethyl)phenyl]pyridin-4-yl]-6,7-dihydropyrazolo[1,5-a]pyrazin-4(5H)-one], the pIC50 was 4.94.
For `N#Cc1cc(-c2cc3n(n2)CCNC3=O)ccn1` [Example 126, 4-(4-oxo-4,5,6,7-tetrahydropyrazolo[1,5-a]pyrazin-2-yl)pyridine-2-carbonitrile], the pIC50 was 4.86.
In the case of `CCCn1nc(-c2ccnc(-n3ccnc3)c2)cc1C(=O)O` [Example 127, 3-[2-(1H-imidazol-1-yl)pyridin-4-yl]-1-propyl-1H-pyrazole-5-carboxylic acid], the pIC50 was 4.84.
`CN(C)Cc1cccc(-c2cc(-c3cc4n(n3)CCNC4=O)ccn2)c1` [Example 128, 2-(2-{3-[(dimethylamino)methyl]phenyl}pyridin-4-yl)-6,7-dihydropyrazolo[1,5-a]pyrazin-4(5H)-one trifluoroacetate] gave a pIC50 of 4.81.
For `O=C1NCCn2nc(-c3ccnc(-c4cccc(OCc5ccccc5)c4)c3)cc21` [Example 129, 2-{2-[3-(benzyloxy)phenyl]pyridin-4-yl}-6,7-dihydropyrazolo[1,5-a]pyrazin-4(5H)-one], the pIC50 was 4.81.
In the case of `O=C1NCCCn2nc(-c3ccnc(-n4cccn4)c3)cc21` [Example 130, 2-[2-(1H-pyrazol-1-yl)pyridin-4-yl]-5,6,7,8-tetrahydro-4H-pyrazolo[1,5-a][1,4]diazepin-4-one hydrochloride], the pIC50 was 4.79.
`CCOC(=O)c1cc(-c2ccncc2)nn1CCN` [Example 133, ethyl 1-(2-aminoethyl)-3-pyridin-4-yl-1H-pyrazole-5-carboxylate dihydrochloride] gave a pIC50 of 4.61.
`Cc1ccc(C(C)CCNCCn2nc(-c3ccncc3)cc2C(=O)O)o1` (centres unmarked) [Example 134, 1-(2-{[3-(5-methyl-2-furyl)butyl]amino}ethyl)-3-pyridin-4-yl-1H-pyrazole-5-carboxylic acid trifluoroacetate] was tested, and the pIC50 was 4.57.
Work on `O=C1NCCCn2nc(-c3ccnc(-n4cncn4)c3)cc21` [Example 135, 2-[2-(1H-1,2,4-triazol-1-yl)pyridin-4-yl]-5,6,7,8-tetrahydro-4H-pyrazolo[1,5-a][1,4]diazepin-4-one hydrochloride] yielded a pIC50 of 4.55.

Reference: patent US20040152739A1, “Acyclic pyrazole compounds for the inhibition of mitogen activated protein kinase-activated protein kinase-2” (priority 2002, published 2004)
